Measurements from US9168243B2, “Pharmaceutical compositions comprising 8-substituted dibenzylbutyrolactone lignans” (priority 2010, dated 2015).
“Also recorded” adds a separate entry of the source.

Assays:
[1] = test system: LNCaP prostate cancer cells; experiment: Flow cytometric screen for sensitization to TRAIL-induced apoptosis (nuclear fragmentation by propidium iodide, mitochondrial depolarization by TMRM); assay type: cell-based; conditions: for capacity to sensitize LNCaP prostate cancer cells to TRAIL-induced apoptosis: androgen-deprived, 40 μM lignan 1 hour before 10 ng/ml izTRAIL, 20 hours
Procedure: (§1) Flow cytometric analysis of apoptosis with HTS platform was performed on cells that were plated on a 96-well plate as triplicate samples. After 24 hours in androgen-deprived conditions, the cells were pretreated with 40 μM lignans or lignan derivatives for 1 hour prior to addition of 10 ng/ml izTRAIL. Twenty hours later the plate was centrifuged with a culture plate rotor (1000 rpm, 3 minutes). For analysis of nuclear fragmentation, propidium iodide (PI) buffer (40 mM Na-citrate, 0.3% Triton X-100, 50 μg/ml PI; Sigma) was added to the wells. After 10 minutes incubation at room temperature, the plate was analyzed with LSRII flow cytometer equipped with HTS platform (PE-A channel). The fraction of sub-G0/G1 events (nuclear fragmentation) was gated as a measure of apoptotic cell death. For detection of mitochondrial depolarization, the cells were detached by trypsinization of the cells and incubated in 20 nM tetramethylrhodamine (TMRM; Invitrogen) in warm culture medium for 10 minutes before analysis. The plate was analyzed with LSRII flow cytometer equipped with HTS platform (FSC, PE-A channel). The cells with decreased TMRM incorporation were considered to have undergone mitochondrial membrane depolarization. Activated caspase-3 in cells was labeled with phycerythrin (PE)-conjugated antibody according to manufacturer's protocol (BD Pharmingen) and analyzed by FacsCalibur flow cytometer (FL-2, FSC).
LNCaP cells were cultured in the absence of 1 nM androgen and incubated with lignan compounds (40 μM) for 1 hour before izTRAIL treatment (10 ng/ml) or control for 20 hours. The samples were screened for nuclear fragmentation by propidium iodide labeling (FIG. 1A) or mitochondrial depolarization by TMRM labeling (FIG. 1B). The plates were analyzed with LSRII flow cytometer equipped with HTS platform (FSC, PE-A channels). The fraction of sub-G0/G1 events (nuclear fragmentation; PE-A channel) was gated as a measure of apoptotic cell death (FIG. 1A) and the cells with decreased TMRM incorporation (PE-A channel) were considered to have undergone mitochondrial membrane depolarization (FIG. 1B). Representative histograms and dot blots for control, TRAIL, nortrachelogenin (NTG) and NTG+TRAIL treatments are viewed.
Importantly, substitution with methyl group at position 8 further increases activity of dibenzylbutyrolactone lignans in sensitization of LNCaP prostate cancer cells to TRAIL-mediated apoptosis (FIG. 8). LNCaP cells were cultured in the absence of 1 nM androgen and incubated with indicated lignan compounds (40 μM) for 1 hour before izTRAIL treatment (10 ng/ml) or control for 20 hours. The cells were disrupted and the nuclei labeled for DNA content with propidium iodide. The samples were analyzed by flow cytometry and the fraction of sub-G0/G1 events (nuclear fragmentation) was detected as a measure of apoptotic cell death (mean±SEM; n=4). (FIG. 8A). Alternatively, LNCaP cells (+/−1 nM androgen) were incubated with 0-100 μM 8-Me-MAT for 1 hour after which total cell lysates were prepared and the samples were analyzed by Western blotting for Akt and phospho-Akt(ser473) expression.

phospho-Akt(ser473) [2] = conditions: reported earlier; cited from earlier work
[3] = in vivo; cited from earlier work
phospho-Akt(ser473) [4] = experiment: Western blot of Akt / phospho-Akt(ser473); assay type: cell-based; conditions: LNCaP +/- 1 nM androgen; 0-100 μM lignan, 1 hour (NTG also 100 μM, 0-8 hours)
Procedure: Whole cell lysates were prepared by lysing floating and attached cells in Laemmli sample buffer and boiling the samples for 10 minutes. Proteins were separated by SDS-PAGE and transferred on PVDF membrane (Millipore). Western blotting was performed using antibodies against Akt, phospho-Akt (Ser473), GSK-3β, phospho-GSK-3β (Ser9) and phospho-EGF receptor Tyr(1068) (Cell Signalling Technology), Actin (clone AC-40; Sigma-Aldrich), PI3K p85α (clone 4/PI3-Kinase; BD Pharmingen), EGF receptor, Insulin receptor β and IGF-I receptor β (Santa Cruz Biotechnology), and Phospho-tyrosine (clone 4G10; Millipore). HRP-conjugated secondary antibodies were from Southern Biotechnology Associates, Promega, and Amersham Biosciences. The results were visualized using the ECL method (Amersham Biosciences) on x-ray film. The presented Western blot results are representative of at least three independent experiments. Densitometric analysis of Western blots was done using scanned films with the MCID M5+ software. The values were normalized to the untreated control sample, which was given the value 1. The histograms in FIG. 4 present a relative decrease in ratio of phosphorylated vs. non-phosphorylated protein compared to control cells.
LNCaP cells (+/−1 nM androgen) were treated with 0-100 μM enterolactone (ENL), matairesinol (MAT) or NTG for 1 hour prior to preparation of total cell lysates (FIG. 4A). The relative decrease in pAkt/Akt ratio was quantified from western blot analysis with Akt (60 kDa) and phospho-Akt(ser473) (Mean±SEM; n=4; Student's t-test *p<0.05, **p<0.01). Alternatively, androgen-deprived LNCaP cells were incubated with 100 μM NTG for 2 hours, fixed and labeled with Akt antibody followed by Alexa 546-conjugated secondary antibody. The samples were viewed at LSM 510 confocal microscope (63× oil objective, 543 nm excitation) (FIG. 4B). To examine the time-dependence of the observed inhibitory effect, LNCaP cells (+/−1 nM androgen) were incubated with 100 μM NTG for 0-8 hours after which total cell lysates were prepared. The western blot analysis with Akt, phospho-Akt(ser473), GSK-3β and phospho-GSK-3β(ser9) was quantified. The histogram presents a relative decrease in pAkt/Akt ratio (FIG. 4C.) or pGSK-3β/GSK-3β ratio (FIG. 4D.) compared to control cells (Mean±SEM; n=3). […]
Importantly, substitution with methyl group at position 8 further increases activity of dibenzylbutyrolactone lignans in sensitization of LNCaP prostate cancer cells to TRAIL-mediated apoptosis (FIG. 8). […] The samples were analyzed by flow cytometry and the fraction of sub-G0/G1 events (nuclear fragmentation) was detected as a measure of apoptotic cell death (mean±SEM; n=4). […]

LNCaP cells [5] = experiment: Caspase-3 activation by flow cytometry, TRAIL with or without NTG; assay type: cell-based; conditions: TRAIL alone, 20 h
Procedure: as §1
As NTG was identified as the most efficient TRAIL-sensitizing lignan, we analyzed the ability of NTG to affect the efficacy of different TRAIL concentrations in triggering of caspase-3 activation (FIG. 2A). The TRAIL resistant LNCaP cells were cultured in androgen-supplied and androgen-deprived conditions to simulate the effects of androgen-deprivation therapy, and treated for 20 h with TRAIL alone or with the combination of 40 μM NTG and TRAIL. The percentage of cells with activated caspase-3 increased from maximum of 15% to 60% for androgen-deprived, and from 13% to 30% for androgen-supplied cells (Mean±SEM; n≧3) (FIG. 2A).

LNCaP cells [6] = experiment: Clonogenic assay; assay type: cell-based; conditions: 11 days; 10 ng/ml TRAIL or 40 μM NTG alone
Procedure: Five hundred LNCaP cells were plated in 1 ml of culture medium and let to adhere prior to addition of the indicated treatments. After 11 days of incubation, cell colonies were fixed with glutaraldehyde (6.0% v/v), stained with crystal violet (0.5% w/v) and imaged using a digital camera.
To investigate the effects of NTG alone and in combination with TRAIL on colony formation ability, the LNCaP cells were plated in low confluency and treated for 11 days.

COc1ccc(CC2COC(=O)C2(C)Cc2ccc(OC)c(OC)c2)cc1OC (stereo not shown) [8-Me-dimethylmatairesinol, 8-Methyldimethylmatairesinol]
capacity to sensitize LNCaP prostate cancer cells to TRAIL-induced apoptosis [1]: clearly enhances the activity

O=C1OC[C@H](Cc2cccc(O)c2)[C@H]1Cc1cccc(O)c1 [ENL, Enterolactone]
Akt phosphorylation in prostate cancer cells (phospho-Akt(ser473) [2]): can reportedly inhibit Akt phosphorylation

COc1cc(C[C@H]2COC(=O)[C@@H]2Cc2ccc(O)c(OC)c2)ccc1O [MAT, Matairesinol, reference compound]
increase of the apoptotic response compared to TRAIL alone (factor) ([1]; lignan in combination with TRAIL): 2.5 | conversion into the mammalian lignans [3]: converted to ENL in the digestive tract | Akt phosphorylation in prostate cancer cells (phospho-Akt(ser473) [2]): can reportedly inhibit Akt phosphorylation

COc1cc(CC2COC(=O)C2(C)Cc2ccc(O)c(OC)c2)ccc1O (stereo not shown) [8-Me-MAT, 8-Methylmatairesinol]
capacity to sensitize LNCaP prostate cancer cells to TRAIL-induced apoptosis [1]: increased capacity to sensitize LNCaP prostate cancer cells to TRAIL-mediated apoptosis | Akt phosphorylation (pAkt/Akt ratio) (phospho-Akt(ser473) [4]): strongly inhibitory effect on Akt phosphorylation; also recorded: inhibit Akt phosphorylation yet more efficiently than ENL or MAT

TRAIL
percentage of cells with activated caspase-3 (maximum) (LNCaP cells [5]; androgen-deprived LNCaP): 15% | percentage of cells with activated caspase-3 (maximum) (LNCaP cells [5]; androgen-supplied LNCaP): 13% | colony formation ability, single agent (LNCaP cells [6]): not able to inhibit LNCaP growth
